In patent US5914244A, “UL97 fusion proteins and methods of use” (priority 1997, dated 1999):
Read-outs that look alike come from different tables or passages of the source.

Experiments:
[1] = target: T1, GST-UL97 fusion protein (glutathione-S-transferase fused to wild-type UL97 protein kinase of CMV strain AD169) (Human cytomegalovirus, UniProt P16788); experiment: biochemical; format: biochemical; conditions: for inhibition at 10 µM: read-out: reduction / inhibition of histone phosphorylation
T1 construct: degradation products of the full length GST-UL97 fusion proteins; made in house; host or cells: Spodoptera frugiperda Sf21 cells infected with recombinant baculovirus BVGSTUL97
Description: (§1) Protein samples were added to 20 μl of reaction buffer containing 50 mM Tris HCl pH 9.0, 10 mM MgCl2, 5 μM ATP, 2 mM DTT, 1 M NaCl and 5 μCi γ^32 P-ATP (unless otherwise stated). After incubation at 37° C. for 30 min (unless otherwise stated), the reactions were terminated by addition of 20 μl of 2× Laemmli sample buffer to the sample and boiling for 3 min. Phosphorylated proteins were resolved by electrophoresis on 10% SDS-PAGE gels and detected by autoradiography. In order to quantitate the level of phosphorylation, the region of the gel corresponding to the labelled protein was excised and the Cerenkov radioactivity was counted. For assay of extracts of insect cells infected with BVUL97 and related recombinant viruses, 2×10^7 infected or mock-infected cells were broken by sonication in 1 ml of ice-cold lysis buffer B (50 mM Tris-HCl pH 7.6, 100 mM NaCl, 5 mM MgCl2, 0.1% NP-40, 10% glycerol, […] and 1 mM PMSF). Insoluble material was removed by centrifugation at 12,000×g for 5 minutes.
Exogenous UL97 substrates identified in the substrate assay are used to detect agents which affect UL97 protein kinase activity. […] In a typical reaction, 0.8 μg/μl histone was dissolved in 20 μl reaction buffer, and the reaction was initiated by addition of 1.9 ng/μl GST-UL97. Following a 30 min incubation at 37° C., the reaction was terminated by the addition of 2× Laemmli sample buffer to the sample and boiling for 3 min. Proteins were separated on 15% SDS-PAGE gels, and phosphorylation was detected by autoradiography.
In this assay, an agent which may be an inhibitor or an activator of UL97 is added to the phosphorylation reaction, and the reaction is allowed to proceed. The amount of phosphorylation is then measured, to see if the agent increases or decreases UL97-mediated histone phosphorylation.

[2] = target: T1, GST-UL97 fusion protein (glutathione-S-transferase fused to wild-type UL97 protein kinase of CMV strain AD169); experiment: GST-UL97 autophosphorylation protein kinase assay (Km by Lineweaver-Burk plot); format: biochemical
Description: as §1
The Michaelis or apparent dissociation constant (Km) for GST-UL97 was determined using a Lineweaver-Burk plot. Kinase reactions (enzyme concentration, 4.7 ng/μl) were carried out in 200 μl standard assay buffer. […] Radiolabelled GST-UL97 was separated on 10% SDS-PAGE gels and quantified by Cerenkov count. […]

T1 sequence (P16788 whole entry, the tested form may be a part): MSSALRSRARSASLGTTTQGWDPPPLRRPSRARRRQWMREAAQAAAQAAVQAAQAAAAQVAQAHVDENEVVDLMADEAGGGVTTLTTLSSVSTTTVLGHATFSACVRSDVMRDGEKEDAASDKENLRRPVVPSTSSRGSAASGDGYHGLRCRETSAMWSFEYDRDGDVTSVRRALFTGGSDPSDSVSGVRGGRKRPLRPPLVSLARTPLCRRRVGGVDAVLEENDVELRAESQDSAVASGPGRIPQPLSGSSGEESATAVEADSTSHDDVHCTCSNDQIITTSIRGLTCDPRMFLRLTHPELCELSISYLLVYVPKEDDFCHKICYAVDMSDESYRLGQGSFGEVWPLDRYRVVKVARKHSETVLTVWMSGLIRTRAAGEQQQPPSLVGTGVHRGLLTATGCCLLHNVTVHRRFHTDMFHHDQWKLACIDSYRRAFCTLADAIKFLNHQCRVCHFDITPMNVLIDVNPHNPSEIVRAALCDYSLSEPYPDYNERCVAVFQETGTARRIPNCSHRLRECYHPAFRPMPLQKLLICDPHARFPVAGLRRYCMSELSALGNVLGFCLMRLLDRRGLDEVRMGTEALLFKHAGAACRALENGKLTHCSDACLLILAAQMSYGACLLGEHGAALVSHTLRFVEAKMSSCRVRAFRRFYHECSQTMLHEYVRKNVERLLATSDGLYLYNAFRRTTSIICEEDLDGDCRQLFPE

With Nc1ncnc2c1ncn2[C@@H]1O[C@H](COP(=O)(O)OP(=O)(O)O)[C@@H](O)[C@H]1O [ADP] the activity at 5 µM ([1]; addition at 5 μM, histone phosphorylation, none = 100) was 166% and the “effect on UL97 protein kinase activity (in words)” value ([1]; histone phosphorylation, ADP at 5 μM) was “stimulatory effect”.
For Nc1ncnc2c1ncn2[C@@H]1O[C@H](COP(=O)(O)OP(=O)(O)OP(=O)(O)O)[C@@H](O)[C@H]1O [ATP], the Km ([2]; optimal divalent cation concentration, enzyme 4.7 ng/μl, read-out: Km determined for ATP as substrate) was 2 ± 0.5 µM.
In the case of Nc1nc2c(ncn2[C@@H]2O[C@H](COP(=O)(O)OP(=O)(O)OP(=O)(O)O)[C@@H](O)[C@H]2O)c(=O)[nH]1 [GTP], the Km ([2]; 10 mM Mg2+, read-out: Km for GTP as a phosphate donor) is reported as 4 µM.
In the case of Nc1nc2c(ncn2[C@@H]2O[C@H](CO)[C@@H](O)[C@H]2O)c(=O)[nH]1 [Guanosine], the activity at 10 µM [1] is reported as 125% and the “effect on GST-UL97 kinase activity (in words)” value ([1]; histone phosphorylation, cAMP 5 μM, guanosine 10 μM (Table 2)) is reported as “Neither cAMP nor guanosine showed an inhibitory effect”.
Compound O=c1c(O)c(-c2ccc(O)c(O)c2)oc2cc(O)cc(O)c12 [Quercetin] has an activity at 10 µM ([1]; addition at 10 μM, histone phosphorylation, none = 100, read-out: Activity (%)) of 28% and an inhibition at 10 µM ([1]; agent at 10 μM) greater than 70%.
Work on N#CC(C#N)=Cc1ccc(O)c(O)c1 [Tyrphostin 23] yielded an activity at 10 µM [1] of 27% and an inhibition at 10 µM [1] of 73%.
With NCCCNCCCCNCCCN [spermine] the activity at 100 µM [1] was 163% and the “effect on UL97-mediated phosphorylation of histone (in words)” value ([1]; 0.1 mM spermine) was “enhanced”.
